Reference: paper PMC3638593, “1,4-dihydroxy-2-naphthoic Acid Induces Apoptosis in Human Keratinocyte: Potential Application for Psoriasis Treatment” (Evidence-based Complementary and Alternative Medicine : eCAM, 2013)
Where “and” joins values, the source holds several entries; their conditions need not be identical. Equal entries are not always repeated. Where two headings read alike, the source gives them in different places.

Columns and labels:
Type in all cases: cell-based, human
HaCaT cells [1] = assay: Proliferation assay (sulphorhodamine B) on HaCaT; conditions: for IC50: Homo sapiens, read-out: IC50 on growth
From the text: (§1) The spontaneously immortalized human epidermal keratinocyte HaCaT cells were purchased from China Centre for Type Culture Collection, Wuhan, China. The human foreskin fibroblast Hs-68 cells were purchased from the American Type Culture Collection (Manassas, VA, USA). The human undifferentiated keratinocyte NCTC 2544 cells were provided by Interlab Cell Line Collection (Genoa, Italy) and the immortalized human epidermal melanocyte PIG1 cells were a gift from Dr Caroline Le Poole (Loyola University Chicago, Maywood, IL, USA). HaCaT and Hs-68 cells were maintained in DMEM, NCTC 2544 in RPMI 1640 and PIG1 cells in Medium 254 with Human Melanocyte Growth Supplement-2, respectively. All cells were cultured in complete medium containing 10% FBS, 100 μg/mL of streptomycin, and 100 U/mL of penicillin (Gibco Laboratories) at 37°C in a humidified atmosphere of 5% CO2. Cell culture experiments were carried out at 60–80% confluent.
(§2) The ethyl acetate extract (EA) of Rubia cordifolia L. was isolated as described. 1,4-dihydroxy-2-naphthoic acid (98%), dithranol (≥90%), and EA were dissolved in DMSO as stock. All cells were seeded and treated with various concentrations of DHNA, dithranol or EA. After treatment, cells were fixed with cold 50% trichloroacetic acid and incubated 1 h at 4°C. Cell was then washed with deionized water, air-dried, and stained with 0.4% (w/v) sulphorhodamine B for 30 min at room temperature. Unincorporated dye was removed with 1% acetic acid wash and the cell was again air-dried. Incorporated dye was then solubilized in 10 mM Tris base and absorbance was measured at 565/690 nm using a Sunrise microplate spectrophotometer (Tecan, Switzerland). IC50 were determined using GraphPad Prism 5.0 (GraphPad Software, San Diego, CA, USA).

NCTC 2544 cells = assay: Proliferation assay (sulphorhodamine B) on NCTC 2544; conditions: for IC50: Homo sapiens, read-out: IC50 on growth
From the text: as §1, §2

HaCaT cells [2] = assay: JC-1 staining, mitochondrial membrane potential
Protocol: After DHNA treatment, HaCaT cells were harvested and washed with PBS. Cells were then incubated in 1.5 μM JC-1 (5,5′,6,6′-tetrachloro-1,1′,3,3′-tetraethylbenzimidazolylcarbocyanine iodide, Molecular Probes) in PBS at 37°C for 15 min in the dark. Thereafter cells were washed, resuspended in PBS and then immediately analyzed on the FACSCanto flow cytometer. If mitochondrial membrane potential (MMP) depolarizes, JC-1 becomes a monomer and emits green fluorescence; when MMP polarizes, JC-1 becomes a polymer and emits red fluorescence. It indicates mitochondria depolarization by a decrease in red/green fluorescence intensity ratio.

HaCaT cells [3] = assay: Cell cycle analysis (PI, flow cytometry); conditions: 24 h, Figure 5(a)
Protocol: HaCaT cells were treated with DHNA for 24 h, fixed with 75% ice-cold ethanol at 4°C for 1 h and stained with PI/RNase solution (BD Pharmingen) for 15 min at room temperature in the dark. Stained cells were analyzed using the FACSCanto flow cytometer immediately. Cell cycle distribution was calculated with ModFit LT 3.1 (Verity Software House, Topsham, ME, USA).

O=C(O)c1cc(O)c2ccccc2c1O [DHNA, 1,4-dihydroxy-2-naphthoic acid]
IC50 (HaCaT cells [1]; incubation 48 h): 111 µM and 22.8 µg/mL | IC50 (HaCaT cells [1]; incubation 72 h): 38.9 µM and 7.95 µg/mL | less potent than dithranol in inhibiting keratinocytes growth (HaCaT cells [1]; compared with dithranol): ~ 4 times | IC50 (NCTC 2544 cells; NCTC 2544, incubation 48 h): 81.4 µM and 16.6 µg/mL | IC50 (NCTC 2544 cells; NCTC 2544, incubation 72 h): 46.8 µM and 9.56 µg/mL | less potent than dithranol in inhibiting keratinocytes growth (NCTC 2544 cells; NCTC 2544, compared with dithranol): ~ 12 times | MMP (red/green JC-1 fluorescence ratio) compared with vehicle control (HaCaT cells [2]; 30 μM/6.13 μg/mL, 24 h): 103.3% | MMP (red/green JC-1 fluorescence ratio) compared with vehicle control (HaCaT cells [2]; 30 μM/6.13 μg/mL, 48 h): 95.5% | MMP (red/green JC-1 fluorescence ratio) compared with vehicle control (HaCaT cells [2]; 240 μM/49.01 μg/mL, 24 h): 35.4% | MMP (red/green JC-1 fluorescence ratio) compared with vehicle control (HaCaT cells [2]; 240 μM/49.01 μg/mL, 48 h): 29.2% | G0/G1 cell population (HaCaT cells [3]; 60 μM (12.25 μg/mL)): 39.3% | G2/M phase cells (HaCaT cells [3]; 60 μM (12.25 μg/mL)): 12.4% | G0/G1 cell population (HaCaT cells [3]; 120 μM (24.5 μg/mL)): 51.0% | G2/M phase cells (HaCaT cells [3]; 120 μM (24.5 μg/mL)): 9.4% | S phase cells (HaCaT cells [3]; 120 μM (24.5 μg/mL)): 39.6% | sub-G0/G1 population (HaCaT cells [3]; 120 μM (24.5 μg/mL)): 19.7%
